This is an account of results in US20240366624A1, “METHODS AND COMPOSITIONS FOR TREATING THROMBOTIC DISEASE” (Washington University, priority 2023, published 2024).

SMILES strings stand for the structures. “Also recorded” adds a separate entry of the source.

Assay [1] concerns Ero1α-null platelets. The assay is described as follows: Platelet aggregation, Ero1α-null platelets. In kind it is cell-based, mouse. The protocol: FIG. 7(A-L) is an exemplary embodiment of crucial intracellular ERO1α (endoplasmic reticulum oxidoreductase 1a) for platelet activation, aggregation, and thrombus formation in accordance with the present disclosure. FIG. 7A: Ex vivo platelet thrombus formation in a flow chamber assay. Adherent and aggregated platelets were stained with rhodamine-conjugated phalloidin and imaged by confocal microscopy. Representative images (bar, 10 μm). Surface coverage and thrombus volume were measured (mean±SD, n=4). FIG. 7(B-E): Aggregation and ATP secretion of wild type (WT) and Ero1α-null platelets were induced by 0.025 U/mL thrombin, 0.05 μg/mL CRP (collagen-related peptide), 0.5 μM A23187, or 2.5 μM ADP. Platelet aggregation (i) and ATP secretion (ii). FIG. 7F: Ero1α-null platelets were pretreated with 50 μg/mL wtERO1α or wtPDI and then with 0.025 U/mL thrombin. Quantification graphs of aggregation and ATP secretion are presented as the mean±SD (n=3-4). FIG. 7G and FIG. 7H: P-selectin exposure and αIIbβ3 integrin activation of WT and Ero1α-null platelets were analyzed by flow cytometry. The data are presented as the geometric mean fluorescence intensity (MFI) value (mean±SD, n=3-4). FIG. 7I: WT and Ero1α-null platelets were treated with or without 0.025 U/mL thrombin for 1 minute in an aggregometer. The lysates were immunoprecipitated with control IgG or anti-β3 antibodies and subjected to immunoblotting with antibodies against talin1 or β3 and densitometric analysis (mean±SD, n=3). FIG. 7J: WT and Ero1α-null platelets were treated with or without 0.025 U/mL thrombin, followed by transmission electron microscopy. The original magnification was 34 800, and the extension was 313 000. Bar, 500 nm. FIG. 7K and FIG. 7L: Intravital microscopy was performed to determine the effect of 15E9 (1-3 μg/g body weight [BW]) and a blocking anti-PDI (protein disulfide isomerase) antibody (BD34, 3 μg/g BW) on platelet thrombus formation and fibrin generation at the site of laser-induced cremaster arteriolar injury (n=27-40 arterioles in 6 mice per group). The n indicates biological replicates. P values determined by unpaired Student t test (FIG. 7(A-E) and FIG. 7(G-1)), ANOVA and Dunnett test (FIG. 7F), or Mann-Whitney U test (FIG. 7K and FIG. 7L).
FIG. 9(A-C) is an exemplary embodiment of EN460 inhibiting thrombin-induced aggregation of mouse and human platelets in accordance with the present disclosure. […] P values determined by ANOVA and Dunnett's test (FIG. 9(A-B)) or Student's t-test (FIG. 9C).
FIG. 10(A-E) is an exemplary embodiment of 15E9 not affecting platelet activation and aggregation in accordance with the present disclosure. […] P values determined by unpaired Student's t-test (vs. mIgG1). […]

For assay [2], the system named is mouse platelets. The assay is described as follows: Ca2+ mobilization (FLIPR), mouse platelets. It counts as cell-based. The protocol: FIG. 15 is an exemplary embodiment of EN460 affecting the basal level of cytosolic Ca2+ and inhibiting Ca2+ mobilization in accordance with the present disclosure. WT mouse platelets were pretreated with vehicle (0.1% DMSO) or 5-10 μM EN460, followed by measuring Ca2+ release and influx after stimulation with 2 μM A23187 and the addition of 1 mM CaCl2). The data represent the mean±SD (n=3). P values determined by ANOVA and Dunnett's test.
Ca^2+ mobilization was measured as described previously. WT control and Ero1α-null platelets (1×10^8/mL) were suspended in HEPES-Tyrode buffer, pH 7.4. Cells were incubated with a Ca^2+ dye (FLIPR Ca^2+5 assay kit; Molecular Devices) for 30 minutes at 37° C. in the dark, followed by stimulation with thrombin (0.1 U/mL), A23187 (2 μM) or thapsigargin (10-20 μM). After measuring Ca^2+ release, 1 mM CaCl2) was immediately added to assess Ca^2+ influx. In other experiments, Ca^2+ dye-labeled human and WT mouse platelets were incubated with a vehicle or an inhibitor for 10 minutes at 37° C. Cytosolic Ca^2+ levels were measured using a FlexStation3 microplate reader with an excitation wavelength of 485 nm and an emission wavelength of 525 nm. Ca^2+ mobilization was quantified by the area under the curve and expressed as a relative fluorescence unit.

Take `O=C(CSc1nc(O)cc(O)n1)N1c2ccccc2Sc2ccccc21` [B12-5]: the Ero1α-null platelet aggregation entry in assay [1] (10 μM / up to 10 μM) is given as “without affecting; also recorded: did not show an additional effect”. Further, the “Ca2+ release and influx” value in assay [2] (mouse platelets, thrombin or A23187) is recorded as “dose dependently inhibited”.
As for `O=C(O)c1cc(N2N=C(C(F)(F)F)/C(=C/c3ccc(-c4ccccc4)o3)C2=O)ccc1Cl` [EN460], the figures for the Ero1α-null platelet aggregation result in assay [1] (3 μM) and in assay [1] (3 to 10 μM) were “abolished; also recorded: completely blocked” and “significantly inhibited”, respectively. Further, the “Ca2+ release and influx” value in assay [2] (A23187 stimulation, 5-10 μM) is listed as “diminished”. Also, the “basal level of cytosolic Ca2+” value in assay [2] (concentration-dependent, 5-10 μM, 3 to 10 μM) is given as “increased”.
